Measurements published in publication PMC12208134, “Structure-activity relationships of 1,5-dihydro-2H-benzo[b][1,4]diazepine-2,4(3H)-diones as inhibitors of Trypanosoma cruzi” (RSC medicinal chemistry, 2025).
Values after ≈ are worked out from the molar mass of the structure shown. Values joined by “and” are separate entries in the source; they are usually repeats but may differ in a detail not shown here. Equal values may be shown once. Read-outs that look alike come from different tables or passages of the source.

What was measured:
[1] = tested on: intracellular T. cruzi amastigotes; experiment: T. cruzi intracellular potency assay (high content imaging); assay type: cell-based, Trypanosoma cruzi; design: key to Max Effect (T. cruzi): % inhibition; 0% = DMSO control, 100% = 16 μM nifurtimox control; conditions: for Emax: read-out: Max Effect (T. cruzi); for IC50: intracellular amastigotes in Vero cells, 96 h, mean of N ≥ 3, read-out: T. cruzi pIC50 (converted)
Description: (§1) T. cruzi intracellular potency and rate-of-kill assay (high content imaging) ^1
(§2) Silvio X10/7 T. cruzi trypomastigotes were incubated at 37°C 5% CO2 with 1.6×10^7 Vero cells overnight at MOI10 in MEM media supplemented with 10% foetal calf serum (FCS). Extracellular parasites were removed by aspirating cell culture supernatant, and washing Vero monolayer with 10 ml serum-free MEM three times. Vero cells were then harvested by trypsinization and dispensed at 2×10^3 per well (50 μl in MEM/ 1% FCS) into 384 well plates pre-stamped with compounds in DMSO using automated washer/ dispenser EL406 and liquid handling software (Biotek). Plates were then incubated at 37°C in 5% CO2 for 96 h. For rate-of-kill determination, plates were incubated for 24h, 48h, 72h and 96h.
(§3) Plates were subsequently fixed with 4% formaldehyde for 20 min, permeabilised and stained with 5 μgml^-1 Hoechst 33342/ 0.1% Triton/ PBS Thimerosal 20 min. Automated imaging was performed by an Operetta high content imaging system using 20x objective (PerkinElmer). Images were analysed with an algorithm generated in Columbus (PerkinElmer) to segment Vero cell nuclei, Vero cell cytoplasm and parasite nuclei/ kinetoplasts, reporting number of amastigotes per Vero cell, percent infected Vero cells and total number of Vero cells. Compound potencies against T. cruzi parasites were calculated in IDBS Activitybase using percent infected Vero cells and Vero toxicity curves generated using number of host cells. All data was normalised to percent inhibition based on the raw data values for the 100% effect control (16 μM nifurtimox) and the 0% effect control (DMSO) on each plate at each time point. Curve fitting was carried out using a four-parameter equation as previously described. ^2 For rate-of-kill experiments the percent infected cells at each compound concentration was plotted against time.

T. cruzi trypomastigotes [2] = experiment: T. cruzi trypomastigote assay; assay type: cell-based, Trypanosoma cruzi
Description: T. cruzi trypomastigote assay
Trypomastigote assays were carried out with T. cruzi Silvio X10/7 trypomastigotes using the protocol previously described. ^1

T. cruzi epimastigotes = experiment: T. cruzi oxygen consumption assay; assay type: cell-based; conditions: Trypanosoma cruzi, read-out: T. cruzi oxygen consumption pIC50 (converted)
Description: T. cruzi oxygen consumption assay
Oxygen consumption was measured using T. cruzi epimastigotes and the MitoXpress Xtra Oxygen Consumption Assay (Agilent) as previously reported. ^6

Tc-CYP51 = Tc-CYP51 (Trypanosoma cruzi, UniProt Q7Z1V1); experiment: T. cruzi sterol 14α-demethylase (CYP51) enzyme assay; assay type: biochemical; conditions: for Emax: read-out: Tc CYP51 Max Effect; for fold more potent against the parasites than against Tc-CYP51: urea series
Chain of Tc-CYP51 (Q7Z1V1 whole entry): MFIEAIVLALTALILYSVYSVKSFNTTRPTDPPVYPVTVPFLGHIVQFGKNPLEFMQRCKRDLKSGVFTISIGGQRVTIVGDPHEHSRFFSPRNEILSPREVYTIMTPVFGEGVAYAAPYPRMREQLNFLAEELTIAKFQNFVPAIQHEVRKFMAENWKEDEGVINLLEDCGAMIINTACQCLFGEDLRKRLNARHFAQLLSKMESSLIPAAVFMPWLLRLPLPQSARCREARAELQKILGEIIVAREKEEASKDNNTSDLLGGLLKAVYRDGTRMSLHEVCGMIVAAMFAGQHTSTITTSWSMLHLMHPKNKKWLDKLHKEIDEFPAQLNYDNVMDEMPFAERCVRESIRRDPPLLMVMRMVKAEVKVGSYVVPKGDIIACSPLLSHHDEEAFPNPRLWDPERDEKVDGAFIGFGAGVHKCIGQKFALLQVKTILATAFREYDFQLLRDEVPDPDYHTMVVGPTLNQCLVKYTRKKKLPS
Description: T. cruzi sterol 14α-demethylase (CYP51) enzyme assay
Potency against T. cruzi CYP51 was determined using a previously described fluorescence assay. Average potency for compound 1 was determined with three experimental replicates. Potencies in Fig.3 are from single experimental replicates. ^5

[3] = tested on: intracellular T. cruzi amastigotes; experiment: Rate-of-kill assay against intracellular amastigotes; assay type: cell-based, Trypanosoma cruzi
Description: as §1, §2
Plates were subsequently fixed with 4% formaldehyde for 20 min, permeabilised and stained with 5 μgml^-1 Hoechst 33342/ 0.1% Triton/ PBS Thimerosal 20 min. […] Images were analysed with an algorithm generated in Columbus (PerkinElmer) to segment Vero cell nuclei, Vero cell cytoplasm and parasite nuclei/ kinetoplasts, reporting number of amastigotes per Vero cell, percent infected Vero cells and total number of Vero cells. Compound potencies against T. cruzi parasites were calculated in IDBS Activitybase using percent infected Vero cells and Vero toxicity curves generated using number of host cells. […]

T. cruzi proteasome = T. cruzi proteasome (Trypanosoma cruzi, UniProt V5BU39)
Description: T. cruzi proteasome enzyme assay
The pIC50 of compound 1 was measured in a T. cruzi proteasome assay (N = 2 experimental replicates, each with n = 3 technical replicates) as previously described, using a recombinantly expressed Δβ1Δβ2 mutant proteasome (measuring chymotrypsin site activity only). ^4

[4] = Mouse liver microsomal intrinsic clearance; assay type: in vitro ADME
[5] = ChromLogD pH7.4 (chromatographic hydrophobicity index), PFI, LLE; conditions: for PFI: ChromLogDpH7.4 + no. aromatic rings; for chromatographic logD: pH 7.4
Text: [23] Alongside PFI, LLE (ligand lipophilic efficiency, T. cruzi pIC50 - ChromLogDpH7.4) was also monitored to identify changes where the impact on potency was not driven by increasing lipophilicity.

[6] = Human liver microsomal intrinsic clearance; assay type: in vitro ADME
host Vero cell = experiment: Vero host cell toxicity in the intracellular T. cruzi assay; assay type: cell-based; design: key to Max Effect (Vero): % inhibition; 0% = DMSO control, 100% = 16 μM nifurtimox control; conditions: for EC50 / IC50: Chlorocebus sabaeus; for EC50: Vero; for IC50: host Vero cell, read-out: Vero pIC50 (converted)
Description: as §1, §2, §3

[7] = Kinetic aqueous solubility by CAD; assay type: physicochemical; conditions: kinetic from dmso stock
Tc-HisRS = Tc-HisRS (Trypanosoma cruzi, UniProt Q4DA54); experiment: biochemical
Chain of Tc-HisRS (Q4DA54 entry or part of it): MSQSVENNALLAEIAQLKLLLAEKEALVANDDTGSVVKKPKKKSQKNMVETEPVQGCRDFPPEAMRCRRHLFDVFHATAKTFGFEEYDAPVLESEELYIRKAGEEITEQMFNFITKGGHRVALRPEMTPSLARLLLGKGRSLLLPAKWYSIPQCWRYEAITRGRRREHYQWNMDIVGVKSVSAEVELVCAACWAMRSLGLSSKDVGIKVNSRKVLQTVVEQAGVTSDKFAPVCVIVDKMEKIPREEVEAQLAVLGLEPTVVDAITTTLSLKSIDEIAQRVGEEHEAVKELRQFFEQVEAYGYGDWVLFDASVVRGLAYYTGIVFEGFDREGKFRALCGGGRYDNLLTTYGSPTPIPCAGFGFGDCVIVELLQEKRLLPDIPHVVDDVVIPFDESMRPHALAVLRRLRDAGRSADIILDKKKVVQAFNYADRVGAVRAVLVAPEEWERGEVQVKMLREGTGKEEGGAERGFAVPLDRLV
Description: TcHisRS assay wells contained TcHisRS assay buffer (30 mM Tris; pH 8, 140 mM NaCl, 40 mM MgCl2, 30 mM KCl, 0.01% (v/v) Brij and 1 mM DTT) plus 50 nM TcHisRS, 8 μM ATP, 5 μM L-histidine and 1 U/mL pyrophosphatase. Assays were run for 2 hours.

Tc-MetRS = Tc-MetRS (Trypanosoma cruzi, UniProt Q4D6H2); experiment: T. cruzi aminoacyl tRNA synthetase enzyme assay (TcMetRS); assay type: biochemical
Chain of Tc-MetRS (Q4D6H2 entry or part of it): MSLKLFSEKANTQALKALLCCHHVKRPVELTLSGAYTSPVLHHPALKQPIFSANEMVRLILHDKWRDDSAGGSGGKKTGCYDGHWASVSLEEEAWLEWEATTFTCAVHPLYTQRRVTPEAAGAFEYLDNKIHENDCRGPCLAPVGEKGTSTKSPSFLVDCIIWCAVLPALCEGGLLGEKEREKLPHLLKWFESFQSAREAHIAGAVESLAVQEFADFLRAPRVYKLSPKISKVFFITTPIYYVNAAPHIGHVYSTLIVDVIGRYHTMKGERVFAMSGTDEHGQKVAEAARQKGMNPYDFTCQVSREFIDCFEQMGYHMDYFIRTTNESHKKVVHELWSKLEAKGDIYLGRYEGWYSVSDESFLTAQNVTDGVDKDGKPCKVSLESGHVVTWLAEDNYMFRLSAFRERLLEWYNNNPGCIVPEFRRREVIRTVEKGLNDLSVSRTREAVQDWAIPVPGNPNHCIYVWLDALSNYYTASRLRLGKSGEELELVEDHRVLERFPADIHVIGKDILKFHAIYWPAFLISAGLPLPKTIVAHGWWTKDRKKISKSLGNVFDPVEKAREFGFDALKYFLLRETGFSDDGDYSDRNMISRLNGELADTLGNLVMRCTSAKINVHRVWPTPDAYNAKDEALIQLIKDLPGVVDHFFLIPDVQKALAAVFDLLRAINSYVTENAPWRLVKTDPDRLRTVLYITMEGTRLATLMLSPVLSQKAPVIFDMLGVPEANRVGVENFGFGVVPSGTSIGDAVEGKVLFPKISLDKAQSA
Description: T. cruzi aminoacyl tRNA synthetase enzyme assays
Assays were run for 2 hours.

intracellular T. cruzi = experiment: T. cruzi washout assay; assay type: cell-based, Trypanosoma cruzi; conditions: 25 x IC50 for 16 days, infected Vero cells
Description: For any hits identified and successfully triaged, the initial focus of hit-expansion is to identify compounds with a suitable profile to run in a washout assay.,[21] In this assay, intracellular T. cruzi are treated with high doses of compounds for an extended duration (25x IC50 for 8 – 16 days), followed by compound washout and assessment of parasite relapse over 60 days to assess ability to clear all parasites, including any persisters. […] Compound series with a profile equal to or better than benznidazole can then be progressed to an in vivo efficacy model of chronic Chagas disease with a high probability of success.
At this stage, we were keen to examine our options for progression into the T. cruzi washout assay, [12],[21] and decided to move forward with 2, 14 and 16 to give coverage across both chemotypes. […] After this dosing period, the compound was washed off the infected cells, and the host cell monolayer was monitored for egressed parasites. The first day egressed parasites were detected post washout was noted down as the relapse day. In this assay, posaconazole, which is known to be ineffective in the clinic, relapsed after 10 days and benznidazole, used as the bench-mark clinical compound, relapsed after 31 / 35 days (2 replicates). We were therefore looking for compounds that relapsed at an equivalent time to benznidazole, or later, to be considered worth pursuing further.
Intracellular T. cruzi washout assays were carried out with the Silvio X10/7 strain using the protocol previously described. ^1

T. cruzi trypomastigotes [8] = tested on: T. cruzi trypomastigotes; design: method as in PMID 30001347; conditions: cited from earlier work
T. cruzi = tested on: T. cruzi; design: method as in PMID 24827034, PMID 29352704; conditions: clinical trials; cited from earlier work
[9] = Trypanosoma cruzi, individual replicate
[10] = individual replicate, read-out: Tc CYP51 pIC50 (converted)
[11] = kinetic, CAD, read-out: Aqueous solubility

## Cc1ccc(NC(=O)NC2C(=O)Nc3ccccc3N(c3ccccc3)C2=O)cc1 (stereo not drawn) [Compound 1, 1-(2,4-dioxo-1-phenyl-2,3,4,5-tetrahydro-1H-benzo[b][1,4]diazepin-3-yl)-3-(p-tolyl)urea]
[1]; [9]
  Emax: 84%
[1]; Trypanosoma cruzi
  IC50: 1 µM
[1]; individual replicate
  Hill slope (T. cruzi): 2.7 and 4.5 and 6.2 and 2.8 and 1.2 and 2.0 and 4.2
  Max Effect (T. cruzi): 87 and 88 and 90 and 83
  pEC50 (T. cruzi): 5.8 and 6.2 and 6.1 and 6.0
T. cruzi trypomastigotes [2]; Trypanosoma cruzi, individual replicate, read-out: Tc-Trypo Max Effect
  Emax: 77%
T. cruzi trypomastigotes [2]; Trypanosoma cruzi, read-out: T. cruzi trypomastigote pIC50 (converted)
  IC50: 0.251 µM
T. cruzi trypomastigotes [2]; individual replicate
  Tc-Trypo Hill: 0.9 and 1.4 and 1.2 and 1.3
  Tc-Trypo Max Effect: 79
  Tc-Trypo pEC50: 7.2 and 7.0 and 6.3 and 6.4
T. cruzi epimastigotes
  IC50: > 50.1 µM
Tc-CYP51; average of three experimental replicates, read-out: Tc-CYP51 pIC50 (converted)
  IC50: 15.8 µM
Tc-CYP51; individual replicate
  Tc CYP51 Hill: 1.3 and 1.1 and 1.4
  Tc CYP51 Max Effect: 83 and 84
  Emax: 85%
Tc-CYP51; [10]
  IC50: 6.31 µM and 25.1 µM
Tc-CYP51
  fold more potent against the parasites than against Tc-CYP51: 10 fold
[3]
  Rate-of-Kill: cidal activity within: Cidal activity within 96 hours ^f
T. cruzi proteasome; individual replicate
  Tc Proteasome Hill: 1.1 and 0.9
  Tc Proteasome Max Effect: 62 and 68
  Tc Proteasome pIC50: 4.0 and 4.2
T. cruzi proteasome; Δβ1Δβ2 mutant proteasome, chymotrypsin site
  Tc-proteasome pIC50: 4.1
[4]; mouse liver microsomes
  MLM CLi: 0.8 mL/min/g
[5]
  PFI: 7.6
  chromatographic logD: 4.6
[6]; human liver microsomes
  HLM CLi: <0.4 mL/min/g
Host Vero cell; individual replicate
  EC50: > 50.1 µM
  Max Effect (Vero): 13 and 1.41 and 11 and 15 and 2.25 and -0.282
Host Vero cell
  IC50: > 50.1 µM
[7]; [11]
  solubility: 35 µM (≈ 14 µg/mL)
Tc-HisRS
  IC50: > 100 µM
Tc-MetRS
  IC50: > 100 µM

## COc1ccc(NC(=O)NC2C(=O)Nc3ccccc3N(c3ccccc3)C2=O)cc1 (stereo not drawn) [Compound 2, 1-(2,4-dioxo-1-phenyl-2,3,4,5-tetrahydro-1H-benzo[b][1,4]diazepin-3-yl)-3-(4-methoxyphenyl)urea]
[1]; [9]
  Emax: 89%
[1]; Trypanosoma cruzi
  IC50: 1.26 µM
[1]; individual replicate
  Hill slope (T. cruzi): 2.1 and 3.4 and 3.0 and 9.3 and 1.5 and 2.5 and 0.659
  Max Effect (T. cruzi): 99 and 83 and 84 and 94 and 93 and 92 and 88
  pEC50 (T. cruzi): 5.8 and 5.7 and 6.3 and 5.9
Intracellular T. cruzi
  relapse day post washout: 10 days
Tc-CYP51; individual replicate
  Tc CYP51 Hill: 1.1
  Emax: 95%
Tc-CYP51; [10]
  IC50: 7.94 µM
Tc-CYP51
  fold more potent against the parasites than against Tc-CYP51: 10 fold
[4]; mouse liver microsomes
  MLM CLi: <0.5 mL/min/g
[5]
  PFI: 7.0
  chromatographic logD: 4
[6]; human liver microsomes
  HLM CLi: <0.4 mL/min/g
Host Vero cell; individual replicate
  EC50: > 50.1 µM
  Max Effect (Vero): 26 and 22 and 25 and -6 and 27 and 29 and 1.42 and 36
Host Vero cell
  IC50: > 50.1 µM
[7]; [11]
  solubility: 64 µM (≈ 26.7 µg/mL)

## COc1ccc(CN2C(=O)C(N)C(=O)N(c3ccc(OC)cc3)c3ccccc32)cc1 (stereo not drawn) [Compound 16, 3-amino-1-(4-methoxybenzyl)-5-(4-methoxyphenyl)-1,5-dihydro-2H-benzo[b][1,4]diazepine-2,4(3H)-dione]
[1]; [9]
  Emax: 86%
[1]; Trypanosoma cruzi, individual replicate, read-out: pEC50 (T. cruzi) (converted)
  EC50: 0.316 µM
[1]; Trypanosoma cruzi
  IC50: 0.316 µM
[1]; individual replicate
  Hill slope (T. cruzi): 3.7 and 4.5 and 5.7 and 13.7
  Max Effect (T. cruzi): 81 and 84 and 91
  pEC50 (T. cruzi): 6.6
Intracellular T. cruzi
  relapse day post washout: 6 days
[4]; mouse, microsomes
  MLM CLi: 7.6 mL/min/g
[5]
  PFI: 7.2
  chromatographic logD: 4.2
[6]; human, microsomes
  HLM CLi: <0.4 mL/min/g
Host Vero cell; individual replicate
  EC50: > 50.1 µM
  Max Effect (Vero): 21 and 44 and 30 and 5.55
Host Vero cell
  IC50: > 50.1 µM
[7]
  solubility: > 270 µM

## CC[C@@H]([C@H](C)O)n1ncn(-c2ccc(N3CCN(c4ccc(OC[C@@H]5CO[C@@](Cn6cncn6)(c6ccc(F)cc6F)C5)cc4)CC3)cc2)c1=O [posaconazole]
Intracellular T. cruzi
  relapse day post washout: 10 days
T. cruzi trypomastigotes [8]
  activity against trypomastigotes: only very weakly active
T. cruzi
  treatment failures in patients: 70 – 90%

## O=C(Cn1ccnc1[N+](=O)[O-])NCc1ccccc1 [benznidazole, reference compound]
Intracellular T. cruzi
  relapse day post washout: 31 days and 35 days
T. cruzi trypomastigotes [8]
  activity against trypomastigotes: good activity

## CC(C)N(C(=O)CN1C(=O)C(N)C(=O)N(c2ccccc2)c2ccccc21)c1ccccc1 (racemic) [Compound 14, 2-(3-amino-2,4-dioxo-5-phenyl-2,3,4,5-tetrahydro-1H-benzo[b][1,4]diazepin-1-yl)-N-isopropyl-N-phenylacetamide]
[1]; [9]
  Emax: 89%
[1]; Trypanosoma cruzi
  IC50: 0.2 µM
[1]; individual replicate
  Hill slope (T. cruzi): 4.0 and 12.9 and 3.7 and 29.0 and 4.4 and 2.2 and 5.2
  Max Effect (T. cruzi): 87 and 86 and 88 and 93 and 92 and 82
  pEC50 (T. cruzi): 6.6 and 6.8 and 7.0 and 6.7
Intracellular T. cruzi
  relapse day post washout: 6 days
[4]; mouse, microsomes
  MLM CLi: 3.4 mL/min/g
[5]
  PFI: 8.0
  chromatographic logD: 5
[6]; human, microsomes
  HLM CLi: <0.4 mL/min/g
Host Vero cell; individual replicate
  EC50: > 50.1 µM
  Max Effect (Vero): -6.63 and 8 and -0.0425 and 13 and 41 and 1.19 and 11
  pEC50 (Vero): < 4.3
Host Vero cell
  IC50: > 50.1 µM
[7]
  solubility: > 500 µM

## C[C@@H](c1nc(-c2ccc(C#N)cc2)cs1)[C@@](Cn1cncn1)(OCOP(=O)(O)O)c1ccc(F)cc1F [fosravuconazole]
T. cruzi
  treatment failures in patients: 70 – 90%

## CC1CS(=O)(=O)CCN1/N=C/c1ccc([N+](=O)[O-])o1 (stereo not drawn) [nifurtimox]
T. cruzi trypomastigotes [8]
  activity against trypomastigotes: good activity
